# Data published in BindingDB's records for doi:10.1080/14756360109162352 (Universit&Agrave, 2001).
# Molecular target: T1, Neutrophil elastase (Homo sapiens, UniProt P08246)
# T1 sequence (P08246 whole entry): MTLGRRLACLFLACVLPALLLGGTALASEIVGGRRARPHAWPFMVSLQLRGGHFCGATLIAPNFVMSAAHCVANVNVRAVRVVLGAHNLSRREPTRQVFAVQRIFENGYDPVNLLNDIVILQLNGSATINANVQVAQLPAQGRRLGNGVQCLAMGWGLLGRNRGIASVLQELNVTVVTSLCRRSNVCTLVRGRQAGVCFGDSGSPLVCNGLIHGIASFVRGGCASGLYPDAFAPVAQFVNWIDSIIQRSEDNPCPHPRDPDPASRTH
# Assay: Enzyme Assay
# Conditions: 25 °C
# Protocol: The enzyme were assayed spectrophotometrically at 410nm with p-nitroanilide substrates at 25 C.
row,Ki [µM],Compound
1,199,"CCc1nn(C)c2c1NOC(=O)N2 [Pyrazolooxadiazinone, 2j]"
2,113,"CCCCc1nn(C)c2c1NOC(=O)N2 [Pyrazolooxadiazinone, 2l]"
3,> 8400,"Cc1nn(-c2ccccc2[N+](=O)[O-])c2c1NOC(=O)N2 [Pyrazolooxadiazinone, 2g]"
4,207,"Cc1nn(C)c2c1NOC(=O)N2 [Pyrazolooxadiazinone, 2b]"
5,87,"Cc1nn(-c2ccc(Cl)cc2)c2c1NOC(=O)N2 [Pyrazolooxadiazinone, 2c]"
6,94,"Cc1nn(-c2ccccc2)c2c1NOC(=O)N2 [Pyrazolooxadiazinone, 2a]"
7,> 8400,"Cc1nn(-c2cccc([N+](=O)[O-])c2)c2c1NOC(=O)N2 [Pyrazolooxadiazinone, 2h]"
